Assay results taken from article PMC9486805, “Identification of a Phage Display-Derived Peptide Interacting with the N-Terminal Region of Factor VII Activating Protease (FSAP) Enables Characterization of Zymogen Activation” (ACS Chemical Biology, 2022).

Columns and labels:
pro-FSAP in human plasma = target: T1, pro-FSAP in human plasma (Homo sapiens, UniProt Q14520); experiment: Western blotting of activated plasma, FSAP-inhibitor complex; format: biochemical; conditions: hirudin and citrate plasma 1:2, 1 h at 37 °C, non-reducing; NNKC9/41 25 µM (Fig S6)
T1 construct: from tissue; host or cells: human hirudin or citrate plasma from healthy donors, diluted 1:12
T1 sequence (Q14520 24-560): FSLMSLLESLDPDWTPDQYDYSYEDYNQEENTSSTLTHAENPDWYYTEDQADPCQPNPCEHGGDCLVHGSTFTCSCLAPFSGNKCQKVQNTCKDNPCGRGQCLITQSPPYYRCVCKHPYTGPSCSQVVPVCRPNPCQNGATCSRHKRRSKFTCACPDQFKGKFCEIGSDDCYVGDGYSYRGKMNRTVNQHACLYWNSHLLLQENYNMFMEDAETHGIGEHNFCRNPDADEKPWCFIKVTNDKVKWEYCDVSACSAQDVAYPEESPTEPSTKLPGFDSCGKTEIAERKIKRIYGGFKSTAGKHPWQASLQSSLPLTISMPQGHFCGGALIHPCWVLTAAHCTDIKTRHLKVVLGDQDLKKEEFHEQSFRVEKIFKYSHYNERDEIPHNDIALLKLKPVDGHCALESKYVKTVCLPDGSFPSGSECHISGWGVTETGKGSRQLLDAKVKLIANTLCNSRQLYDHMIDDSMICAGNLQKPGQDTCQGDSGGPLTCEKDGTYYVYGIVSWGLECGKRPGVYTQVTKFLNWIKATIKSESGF
Procedure: Hirudin plasma Citrate plasma
Fig S6. Western blotting of activated plasma: Hirudin or citrate plasma (1:2) dilution was incubated for 1 h at 37 °C with test substances and the samples were analyzed by Western blotting with an anti-FSAP polyclonal antibody under non-reducing conditions. Top panel: NNKC9/41 and Ser-Ser cyclic peptides (25 µM) were compared to histones (50 µg/ml). Lower panel: 100, 50, 25 and 12.5 µM NNKC9/41 and Ser-Ser cyclicpeptide were compared. Arrows on the right indicate the presence of FSAP and FSAP-inhibitor complexes and MW markers are indicated on the left.Results are representative of 3 independent experiments. […]

ΔEGF3 mutant = experiment: Binding of biotinylated peptides to captured ΔEGF3 mutant; design: species or system human; conditions: peptide 1 μM; triplicate wells (Fig 2E)
Procedure: (§1) Figure 2 NNKC9/41 interacts with the NTR of pro-FSAP: (A) To determine peptide binding to pro-FSAP, wells were coated with 2 μg/mL pro-FSAP and biotinylated NNKC9/41 and NNK11/189 and their respective scrambled controls were added in different concentration (0–5 μM). Peroxidase-labeled streptavidin was used to detect peptide binding. (B) Same procedure as in (A) except that different proteins were immobilized and biotinylated NNKC9/41 (0–30 μM) was added and its binding was measured. (C) Schematic structure of pro-FSAP with the heavy chain consisting of an NTR, three EGF domains, and a kringle domain, followed by the light chain harboring the serine protease domain (SPD). The binding domains of antibodies used in this study are indicated. (D) Recombinant complete heavy chain (heavy) and truncated heavy chain variants ΔNTR, ΔEGF1, ΔEGF2, ΔEGF3, and ΔKringle were expressed in bacteria and analyzed by sodium dodecyl sulfate poly(acrylamide) gel electrophoresis (SDS-PAGE) followed by Coomassie staining. […] Biotinylated NNKC9/41 or the scrambled control peptide was added at 1 μM and peptide binding was measured with peroxidase-linked streptavidin. […]
(§2) Wells were coated with anti-FSAP polyclonal antibodies (5 μg/mL). […] Subsequently, the plates were washed, and bound peptides were detected with peroxidase-coupled streptavidin. […]

[1] = system: extrinsic pathway of coagulation; experiment: Plasma clotting assay, diluted prothrombin time (dPT); format: biochemical, human; conditions: prothrombin-deficient citrated plasma 1:5, 10 mM CaCl2; peptide 0–25 μM, 60 min 37 °C; three experiments (Fig 6B)
Procedure: Figure 6 Pro-FSAP activation and clotting in plasma by NNKC9/41: (A) citrate plasma (1:12 dilution) from donors with WT/WT, WT/MI, and MI/MI genotypes and WT-FSAP-deficient plasma (FSAP-DP) were compared. Substrate turnover was monitored after addition of NNKC9/41 or the Ser–Ser linear peptide (25 μM each). Results are shown as mean + range of duplicate wells. (B) Pooled prothrombin-deficient citrated plasma (1:5 dilution) was recalcified with 10 mM CaCl2 and incubated with NNKC9/41 or scrambled control peptide (0–25 μM each) for 60 min at 37 °C in the presence or absence of the FSAP-inhibitory MA-FSAP-38C7 (5 μg/mL). Initiation of clotting was achieved by adding the tissue factor/phospholipid and prothrombin complex concentrate. Clotting time was measured as diluted prothrombin time (dPT) in seconds. Data are the mean of three independent experiments. […]
Prothrombin-deficient citrated pool plasma (Haemochrom Diagnostica, diluted 1:5 in HBS, pH 7.4) was recalcified with 10 mM CaCl2 and incubated with peptides for 60 min at 37 °C in the presence or absence of the FSAP-inhibitory MA-FSAP-38C7 (5 μg/mL). […] Clot formation was measured optically at 405 nm in a plate reader (Tecan, Crailsheim, Germany). The time from starting the reaction to 50% maximum clot turbidity was measured as diluted prothrombin time (dPT) in seconds.

immobilized pro-FSAP = experiment: Activation of pro-FSAP captured from plasma on anti-FSAP antibody-coated wells; format: biochemical, human; conditions: peptide 0–25 μM in solution, duplicate wells (Fig 5A)
Procedure: Figure 5 Characteristics of pro-FSAP activation in plasma by NNKC9/41: (A) neutravidin-coated wells were used to capture biotinylated NNKC9/41 or scrambled control peptide (0–25 μM). Hirudin plasma (1:10) was incubated in the wells for 1 h at 37 °C to allow for binding and activation of pro-FSAP. In parallel, wells were coated with rabbit polyclonal anti-FSAP antibody (2 μg/mL) and plasma was added to immobilize FSAP in the presence of solution phase NNKC9/41 or its scrambled control (0–25 μM). Fluorogenic substrate turnover (Ac–Ala–Lys–Nle–Arg–AMC) was monitored. (B) Plasma was incubated with NNKC9/41 and Ser–Ser control (0–50 μM each) in the absence of any antibody or in the presence of MA-FSAP-38C7 or MA-FSAP-32F10 (5 μg/mL) and the FSAP activity was monitored. (C) Plasma was incubated with NNKC9/41 (25 μM) in the presence of MA-FSAP-38C7 or MA-FSAP-32F10 (0–10 μg/mL) and the FSAP activity was monitored. For (A)–(C), results are shown as mean + range of duplicate wells.

FSAP heavy chain = experiment: Binding of biotinylated peptides to captured recombinant FSAP heavy chain; design: species or system human; conditions: peptide 1 μM; triplicate wells (Fig 2E)
Procedure: as §1, §2

CRGAMWMYKRC [NNKC9/41] was tested, and the FSAP-inhibitor complex band (pro-FSAP in human plasma) was “emergence of an FSAP-inhibitor complex band”, the “peptide binding to ΔEGF3 mutant” value (ΔEGF3 mutant) was “higher binding” and the “clotting time (diluted prothrombin time)” value [1] was “significant effect on lowering the clotting time”. For the same sequence, the “activation of captured pro-FSAP” value (immobilized pro-FSAP) was “found to activate pro-FSAP” and the “peptide binding to heavy chain” value (FSAP heavy chain) was “high binding”.
